Assay results as given in US20070225348A1, “Amino acid composition for improving glucose tolerance” (priority 2005, published 2007).

Tested on: Zucker Diabetic Fatty rats (model with type 2 diabetes mellitus)
Assay: Experiment 2: blood glucose response after oral gavage of glucose with amino acid test mixture or isoleucine solution
Format: in vivo, rat
Conditions: oral gavage 8 ml/kg with glucose, measured at 30, 60, 90 and 120 minutes, control 22.5% glucose solution
Description: The control formula (22.5% glucose solution) and the amino acid test formula described in Experiment 1 are prepared and subsequently used in this second experiment, along with an isoleucine mixture as described below. In this second experiment, a high dose isoleucine mixture is prepared by adding L-isoleucine ([…]) to 50 ml beaker followed by 10 ml of 1N HCL. The beaker contents are mixed until dissolved, and thereafter to it is added with agitation 25 ml of a 45% glucose solution. The pH of the resulting mixture is adjusted to 7.0 (+/−1.0) with a 50% sodium hydroxide solution (buffer may be added to stabilize pH). The pH adjusted mixture is transferred to a 50 ml volumetric and brought to volume with distilled water. The mixture is transferred to a beaker with stir bar and continually stirred while filling syringes. Zucker Diabetic Fatty rats, a model of type 2 diabetes, are received at the animal facility for at least one week before testing. Each is weighed the day before the experiment and then assigned to one of […] matched for body weight. After an overnight fast, each rat is weighed and then dosed at 8 ml/kg body weight (oral gavage) with the glucose control, the amino acid test mixture, or the isoleucine solution. Blood glucose concentrations are then measured from the tip of the tail of each animal at 30, 60, 90 and 120 minutes following the gavage.

CC[C@H](C)[C@H](N)C(=O)O [high dose isoleucine, L-isoleucine]
blood glucose concentrations relative to the control: does not significantly affect blood glucose concentrations
